# Measured values: PubChem BioAssay (NCI)
#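 GI50 is the concentration that inhibits growth by half. TGI: total growth inhibition.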
# How the values were obtained:
# Assay in all cases: DTP human tumour cell line panel, 384-well format
# NCI-H522 lung = tested on: NCI-H522 lung
# NCI-H322M lung = tested on: NCI-H322M lung
# EKVX NSCLC = tested on: EKVX NSCLC
# HL-60(TB) leukemia = tested on: HL-60(TB) leukemia
# SN12C renal = tested on: SN12C renal
# NCI-H226 lung = tested on: NCI-H226 lung
# 786-0 renal = tested on: 786-0 renal
# SW-620 colon = tested on: SW-620 colon
# T-47D breast = tested on: T-47D breast
# MCF7 breast = tested on: MCF7 breast
# HOP-92 NSCLC = tested on: HOP-92 NSCLC
# SK-MEL-28 melanoma = tested on: SK-MEL-28 melanoma
# MOLT-4 leukemia = tested on: MOLT-4 leukemia
# SNB-19 CNS = tested on: SNB-19 CNS
# BT-549 breast = tested on: BT-549 breast
# M14 melanoma = tested on: M14 melanoma
# NCI-H23 lung = tested on: NCI-H23 lung
# SK-MEL-2 melanoma = tested on: SK-MEL-2 melanoma
# SF-539 CNS = tested on: SF-539 CNS
# HCC-2998 colon = tested on: HCC-2998 colon
# SK-OV-3 ovarian = tested on: SK-OV-3 ovarian
# OVCAR-4 ovarian = tested on: OVCAR-4 ovarian
# HT29 colon = tested on: HT29 colon
# SNB-75 CNS = tested on: SNB-75 CNS
# CAKI-1 renal = tested on: CAKI-1 renal
# TK-10 renal = tested on: TK-10 renal
# PC-3 prostate = tested on: PC-3 prostate
# MDA-MB-435 melanoma = tested on: MDA-MB-435 melanoma
# RXF 393 renal = tested on: RXF 393 renal
# MALME-3M melanoma = tested on: MALME-3M melanoma
# SF-295 CNS = tested on: SF-295 CNS
# SR leukemia = tested on: SR leukemia
# KM12 colon = tested on: KM12 colon
# UACC-62 melanoma = tested on: UACC-62 melanoma
# U251 glioblastoma = tested on: U251 glioblastoma
# A549 NSCLC = tested on: A549 NSCLC
# NCI/ADR-RES ovarian = tested on: NCI/ADR-RES ovarian
# MDA-MB-468 breast = tested on: MDA-MB-468 breast
# HOP-62 NSCLC = tested on: HOP-62 NSCLC
# RPMI-8226 leukemia = tested on: RPMI-8226 leukemia
# SK-MEL-5 melanoma = tested on: SK-MEL-5 melanoma
# HCT-15 colon = tested on: HCT-15 colon
# OVCAR-8 ovarian = tested on: OVCAR-8 ovarian
# CCRF-CEM leukemia = tested on: CCRF-CEM leukemia
# COLO 205 colon = tested on: COLO 205 colon
# HS 578T breast = tested on: HS 578T breast
# NCI-H460 NSCLC = tested on: NCI-H460 NSCLC
# OVCAR-5 ovarian = tested on: OVCAR-5 ovarian
# DU-145 prostate = tested on: DU-145 prostate
# MDA-MB-231 breast = tested on: MDA-MB-231 breast
# A498 renal = tested on: A498 renal
# SF-268 CNS = tested on: SF-268 CNS
# OVCAR-3 ovarian = tested on: OVCAR-3 ovarian
# UACC-257 melanoma = tested on: UACC-257 melanoma
# IGROV1 ovarian = tested on: IGROV1 ovarian
# ACHN renal = tested on: ACHN renal
compound,measurement,setting,value
COc1cccc(-c2cc(=O)c3ccccc3o2)c1N,GI50,NCI-H522 lung,30 µM
same,TGI,NCI-H522 lung,> 100 µM
same,GI50,NCI-H322M lung,> 100 µM
same,TGI,NCI-H322M lung,> 100 µM
same,GI50,EKVX NSCLC,37.1 µM
same,TGI,EKVX NSCLC,> 100 µM
same,GI50,HL-60(TB) leukemia,2.79 µM
same,TGI,HL-60(TB) leukemia,21.2 µM
same,GI50,SN12C renal,72.4 µM
same,TGI,SN12C renal,> 100 µM
same,GI50,NCI-H226 lung,25 µM
same,TGI,NCI-H226 lung,70.2 µM
same,GI50,786-0 renal,> 100 µM
same,TGI,786-0 renal,> 100 µM
same,GI50,SW-620 colon,18.8 µM
same,TGI,SW-620 colon,> 100 µM
same,GI50,T-47D breast,59.3 µM
same,TGI,T-47D breast,> 100 µM
same,GI50,MCF7 breast,88.1 µM
same,TGI,MCF7 breast,> 100 µM
same,GI50,HOP-92 NSCLC,56.1 µM
same,TGI,HOP-92 NSCLC,> 100 µM
same,GI50,SK-MEL-28 melanoma,4.03 µM
same,TGI,SK-MEL-28 melanoma,9.78 µM
same,GI50,MOLT-4 leukemia,25.9 µM
same,TGI,MOLT-4 leukemia,66.5 µM
same,GI50,SNB-19 CNS,> 100 µM
same,TGI,SNB-19 CNS,> 100 µM
same,GI50,BT-549 breast,77.3 µM
same,TGI,BT-549 breast,> 100 µM
same,GI50,M14 melanoma,3.91 µM
same,TGI,M14 melanoma,20 µM
same,GI50,NCI-H23 lung,23.9 µM
same,TGI,NCI-H23 lung,99.5 µM
same,GI50,SK-MEL-2 melanoma,27.3 µM
same,TGI,SK-MEL-2 melanoma,55.7 µM
same,GI50,SF-539 CNS,> 100 µM
same,TGI,SF-539 CNS,> 100 µM
same,GI50,HCC-2998 colon,13.8 µM
same,TGI,HCC-2998 colon,58 µM
same,GI50,SK-OV-3 ovarian,79.7 µM
same,TGI,SK-OV-3 ovarian,> 100 µM
same,GI50,OVCAR-4 ovarian,28.1 µM
same,TGI,OVCAR-4 ovarian,> 100 µM
same,GI50,HT29 colon,13.2 µM
same,TGI,HT29 colon,> 100 µM
same,GI50,SNB-75 CNS,41.1 µM
same,TGI,SNB-75 CNS,> 100 µM
same,GI50,CAKI-1 renal,> 100 µM
same,TGI,CAKI-1 renal,> 100 µM
same,GI50,TK-10 renal,> 100 µM
same,TGI,TK-10 renal,> 100 µM
same,GI50,PC-3 prostate,> 100 µM
same,TGI,PC-3 prostate,> 100 µM
same,GI50,MDA-MB-435 melanoma,10.4 µM
same,TGI,MDA-MB-435 melanoma,> 100 µM
same,GI50,RXF 393 renal,46.4 µM
same,TGI,RXF 393 renal,> 100 µM
same,GI50,MALME-3M melanoma,2.25 µM
same,TGI,MALME-3M melanoma,5.26 µM
same,GI50,SF-295 CNS,> 100 µM
same,TGI,SF-295 CNS,> 100 µM
same,GI50,SR leukemia,31.3 µM
same,TGI,SR leukemia,96.5 µM
same,GI50,KM12 colon,40.7 µM
same,TGI,KM12 colon,> 100 µM
same,GI50,UACC-62 melanoma,4.95 µM
same,TGI,UACC-62 melanoma,28.9 µM
same,GI50,U251 glioblastoma,97.2 µM
same,TGI,U251 glioblastoma,> 100 µM
same,GI50,A549 NSCLC,> 100 µM
same,TGI,A549 NSCLC,> 100 µM
same,GI50,NCI/ADR-RES ovarian,25.1 µM
same,TGI,NCI/ADR-RES ovarian,74.7 µM
same,GI50,MDA-MB-468 breast,0.278 µM
same,TGI,MDA-MB-468 breast,0.844 µM
same,GI50,HOP-62 NSCLC,33.1 µM
same,TGI,HOP-62 NSCLC,> 100 µM
same,GI50,RPMI-8226 leukemia,34.4 µM
same,TGI,RPMI-8226 leukemia,> 100 µM
same,GI50,SK-MEL-5 melanoma,10.8 µM
same,TGI,SK-MEL-5 melanoma,37.9 µM
same,GI50,HCT-15 colon,91.8 µM
same,TGI,HCT-15 colon,> 100 µM
same,GI50,OVCAR-8 ovarian,38 µM
same,TGI,OVCAR-8 ovarian,> 100 µM
same,GI50,CCRF-CEM leukemia,23.1 µM
same,TGI,CCRF-CEM leukemia,67.6 µM
same,GI50,COLO 205 colon,3.97 µM
same,TGI,COLO 205 colon,10.8 µM
same,GI50,HS 578T breast,47.7 µM
same,TGI,HS 578T breast,> 100 µM
same,GI50,NCI-H460 NSCLC,66.1 µM
same,TGI,NCI-H460 NSCLC,> 100 µM
same,GI50,OVCAR-5 ovarian,43.1 µM
same,TGI,OVCAR-5 ovarian,> 100 µM
same,GI50,DU-145 prostate,54.9 µM
same,TGI,DU-145 prostate,> 100 µM
same,GI50,MDA-MB-231 breast,40.4 µM
same,TGI,MDA-MB-231 breast,> 100 µM
same,GI50,A498 renal,49.7 µM
same,TGI,A498 renal,> 100 µM
same,GI50,SF-268 CNS,> 100 µM
same,TGI,SF-268 CNS,> 100 µM
same,GI50,OVCAR-3 ovarian,65 µM
same,TGI,OVCAR-3 ovarian,> 100 µM
same,GI50,UACC-257 melanoma,5.54 µM
same,TGI,UACC-257 melanoma,37.2 µM
same,GI50,IGROV1 ovarian,30.7 µM
same,TGI,IGROV1 ovarian,> 100 µM
same,GI50,ACHN renal,> 100 µM
same,TGI,ACHN renal,> 100 µM
